These results are taken from patent US4897406A, “Rhodanine derivatives and pharmaceutical compositions” (Nisshin Flour Milling Co., Ltd., priority 1987, dated 1990).

For data set [1], the system named is contraction of excised bronchi of guinea pigs by histamine. The experiment in a line: Inhibition of contraction of excised bronchi of guinea pigs by histamine. Conditions: 10^-5 M.
Data set [2] concerns excised bronchi of guinea pigs by the action of leukotriene D4. The data set can be described thus: Inhibitory activity on leukotrienes (contraction induced by leukotriene D4 in excised guinea pig bronchi). Conditions: Conc. 10^-5 M, treatment before 10 minutes. On the procedure:
The compounds were evaluated for inhibitory activity on leukotrienes in the following test.
In this test, contraction was induced in excised bronchi of guinea pigs by the action of leukotriene D4, and inhibitory action of the present compounds after treatment before 10 minutes was measured and recorded via a transducer.

The test system of a further data set is rats. The data set can be described thus: Toxicity to rats by oral administration. Particulars: 1000 mg/kg by oral administration. The data set is classed as in vivo.
A further data set relates to PGF2α. The experiment in a line: Inhibition of contraction of excised bronchi of guinea pigs by PGF2α. Particulars: 10^-5 M.
The subject of the next data set is SRS-A. The experiment in a line: Inhibitory activity on biosynthesis and release of chemical mediator (SRS-A), bioassay using excised ileum. Details: species or system guinea pigs. Particulars: Conc. 10^-5 M. The method, then:
The compounds were evaluated for inhibitory activity on biosynthesis and release of a chemical mediator according to the method described by S. Watanabe-Kohno et al [J. Immunol., 125, 946 (1980)] and J. Augastein et al [Nature, 245, 215 (1973)]. In this test, SRS-A was used as a chemical mediator.
The chemical mediator contained in the reaction solution was determined according to bioassay using excised ileum of guinea pigs.
Percent Inhibition (%)=(1-A'/A)×100
A'=contraction level by the reaction solution treated with test compound
A=contraction level by the control reaction solution

Consider `COc1ccc(CCC(C)=C2SC(=S)NC2=O)cc1OC` (single isomer, unassigned) [Isomer A of Example 12, 5-[3-(3,4-Dimethoxyphenyl)-1-methylpropylidene]-4-oxo-2-thioxothiazolidine], for which the “inhibitory activity on contraction by histamine” value in data set [1] is 60-90%. Moreover, the “Percent Inhibition (inhibitory activity on leukotrienes)” value in data set [2] is 100.0%. For the same compound, the mortality result in the data set with rats is “no mortality was observed”. For the same compound, the “inhibitory activity on contraction by PGF2α” value (“inhibitory activity … by PGF2α” below) in the data set on PGF2α is reported as 60-90%. Besides, in the data set on SRS-A, the “Percent Inhibition (biosynthesis and release of chemical mediator)” value is given as 76.2%.
In the case of `CCCC(C=Cc1ccc(C(=O)O)cc1)=C1SC(=S)NC1=O` (single isomer, unassigned) [Isomer A of Example 17, 4-[3-(4-Oxo-2-thioxo-5-thiazolidinylidene)-1-hexen-1-yl]benzoic acid], the “Percent Inhibition (inhibitory activity on leukotrienes)” value in data set [2] is given as 84.7%.
On to `COc1ccc(C=CC(C)=C2SC(=S)NC2=O)cc1OC` (single isomer, unassigned) [Isomer B of Example 1], for which the “inhibitory activity on contraction by histamine” value in data set [1] is on record as 60-90%. Besides, in data set [2], the “Percent Inhibition (inhibitory activity on leukotrienes)” value is 82.4%. Further, the “inhibitory activity … by PGF2α” value in the data set with PGF2α is 60-90%. For the same compound, the “Percent Inhibition (biosynthesis and release of chemical mediator)” value with SRS-A is on record as 58.0%.
Regarding `COc1ccc(CCC(C)=C2SC(=S)NC2=O)cc1OC` (single isomer, unassigned) [Isomer B of Example 12, 5-[3-(3,4-Dimethoxyphenyl)-1-methylpropylidene]-4-oxo-2-thioxothiazolidine], the “inhibitory activity on contraction by histamine” value in data set [1] is 60-90%. Also, the “Percent Inhibition (inhibitory activity on leukotrienes)” value in data set [2] was found to be 97.9%. Besides, the mortality result in the data set on rats was “no mortality was observed”. Moreover, the “inhibitory activity … by PGF2α” value in the data set with PGF2α was 60-90%. Further, the “Percent Inhibition (biosynthesis and release of chemical mediator)” value with SRS-A is 70.6%.
As to `CC(C=Cc1cccs1)=C1SC(=S)NC1=O` (single isomer, unassigned) [Isomer B of Example 15, 5-[3-(2-Thienyl)-1-methyl-2-propenylidene]-4-oxo-2-thioxothiazolidine], in data set [1], the “inhibitory activity on contraction by histamine” value is on record as 60-90%. The “inhibitory activity … by PGF2α” value with PGF2α is 60-90%.
For the compound `CCCC(C=Cc1ccc(C(=O)O)cc1)=C1SC(=S)NC1=O` (single isomer, unassigned) [Isomer B of Example 17, 4-[3-(4-Oxo-2-thioxo-5-thiazolidinylidene)-1-hexen-1-yl]benzoic acid], in data set [2], the “Percent Inhibition (inhibitory activity on leukotrienes)” value is 79.8%.
Still for that read-out and setting: under `COc1ccc(C=CC(CCCC(=O)O)=C2SC(=S)NC2=O)cc1OC` (single isomer, unassigned) [Isomer B of Example 19, 7-(3,4-dimethoxyphenyl)-5-(4-oxo-2-thioxo-5-thiazolidinilydene)-6-heptenoic acid] stands 85.1%.
Turning to `CCOC(=O)CCC(C=Cc1ccc(OC)c(OC)c1)=C1SC(=S)NC1=O` [Compound of Example 14, Ethyl 6-(3,4-dimethoxyphenyl)-4-(4-oxo-2-thioxo-5-thiazolidinylidene)-5-hexenoate], the “inhibitory activity on contraction by histamine” value in data set [1] was 60-90%. For the same compound, the “Percent Inhibition (inhibitory activity on leukotrienes)” value in data set [2] is 98.1%. Moreover, the “inhibitory activity … by PGF2α” value with PGF2α is recorded as 60-90%.
For `CCOC(=O)CCCC(C=Cc1ccc(OC)c(OC)c1)=C1SC(=S)NC1=O` [Ethyl ester compound of Example 19, ethyl 7(3,4-dimethoxyphenyl)-5-(4-oxo-2-thioxo-5-thiazolidinilydene)-6-heptenoate], the “Percent Inhibition (inhibitory activity on leukotrienes)” value in data set [2] stood at 90.5%.
